Reference: patent publication US12065428B2, “Anti-viral compounds” (Aligos Therapeutics, Inc., priority 2021, dated 2024)
pEC50, pIC50: −log10 of the molar value. Where two headings read alike, the source gives them in different places.

Columns and labels:
SARS-Cov-2 3CLpro = molecular target: T1, SARS-Cov-2 3CLpro (Severe acute respiratory syndrome coronavirus 2, UniProt P0DTD1); experiment: SARS-Cov-2 3CLpro and HRV3C duplex assay (SAMDI-MS): 3CLpro; type: biochemical; settings: 3CLpro, duplex assay, 30 mins preincubation; class symbols; read-out: SARS-Cov-2 IC50
T1 construct: SARS-Cov-2 3CLpro and HRV3C Duplex Assay

HRV3C = molecular target: T2, HRV3C (Human rhinovirus 14, UniProt P03303); experiment: biochemical; settings: read-out: HRV IC50
T2 construct: SARS-Cov-2 3CLpro and HRV3C Duplex Assay

[1] = system: human beta-coronavirus OC43; experiment: OC43 coronavirus assay in HeLa cells (cytopathic effect, cell-titer-glo); type: cell-based
[2] = Cytotoxicity plates without OC43 virus in HeLa cells; type: cell-based; settings: human, HeLa cells (uninfected)
Method: The human beta-coronavirus OC43 was purchased from ATCC (Manassas, VA) and propagated using HCT-8 human colorectal epithelial cells (ATCC). HeLa human cervical epithelial cells (ATCC) were used as susceptible host cell lines and were cultured using EMEM media, supplemented with 10% fetal bovine serum (FBS), 1% (v/v) penicillin/streptomycin (P/S), 1% (v/v) HEPES and 1% (v/v) cellgro Glutagro™ supplement (all Corning, Manassas, VA) at 37° C. For the OC43 antiviral assay, 1.5×10^4 HeLa cells per well were plated in 100 μL complete media in white 96-well plates with clear bottoms at 37° C. for up to 24 h to facilitate attachment and allow cells to recover from seeding stresses. Next day, the cell culture medium was removed. Serially diluted compounds in 100 μL assay media (EMEM, 2% FBS, 1% P/S, 1% cellgro Glutagro™ supplement, 1% HEPES) were added to the cells and incubated for 4H at 37° C. in a humidified 5% CO2 incubator. 100 μL of OC43 virus stock was diluted to a concentration known to produce optimal cytopathic effect, inducing 80-90% reduction in cell viability. 96-well plates were incubated for 6 (HeLa) days at 33° C.; each plate contains uninfected control wells as well as virus-infected wells that were not treated with compound. Cytotoxicity plates without the addition of OC43 virus were carried out in parallel. At the end of the incubation period, 100 μL cell culture supernatant was replaced with 100 μL cell-titer-glo reagent (Promega, Madison, WI) and incubated for at least 10 min at rt prior to measuring luminescence. Luminescence was measured on a Perkin Elmer (Waltham, MA) Envision plate reader. Antiviral % inhibition was calculated as follows: [(Compound treated cells infected sample)−(no compound infected control)]/[(Uninfected control)−(no compound infected control)]*100; Using GraphPad (San Diego, CA) prism software version 8.3.1, the antiviral dose-response plot was generated as a sigmoidal fit, log(inhibitor) vs response-variable slope (four parameters) model and the EC50 was calculated which is the predicted compound concentration corresponding to a 50% inhibition of the viral cytopathic effect.

[3] = system: SARS-CoV-2-GHB-03021/2020; experiment: microbe, parasite or virus in culture; type: cell-based; settings: Severe acute respiratory syndrome coronavirus 2, Vero C1008, 96 h; read-out: VeroE6 + CP (EC50)
human cathepsin L = molecular target: T3, human cathepsin L (Homo sapiens, UniProt P07711); experiment: Cathepsin L assay (Z-FR-AMC fluorescence); type: biochemical; settings: 10 pM human cathepsin L, 30 mins preincubation; class symbols
T3 construct: purchased R&D Systems
Method: For the cathepsin L assay, 10 pM of human cathepsin L (R&D Systems; Minneapolis, MN) was preincubated for 30 mins with test compounds. Reactions were initiated by the addition of a peptide substrate Z-FR-AMC (final concentration 2 μM, Anaspec; Fremont, CA). Fluorescence was measured at 2-minute intervals for 30 mins using a 355/460 excitation/emission filter module on an Envision plate reader (Perkin Elmer; Waltham, MA). The IC50 values were calculated for each assay by fitting the curves using a four-parameter equation in GraphPad Prism.

[4] = HRV3C, duplex assay, 30 mins preincubation, class symbols
[5] = Betacoronavirus 1, 144 h, OC43 in HeLa cells, 6 days at 33° C., class symbols, read-out: EC50

T2 sequence (P03303 1538-1719): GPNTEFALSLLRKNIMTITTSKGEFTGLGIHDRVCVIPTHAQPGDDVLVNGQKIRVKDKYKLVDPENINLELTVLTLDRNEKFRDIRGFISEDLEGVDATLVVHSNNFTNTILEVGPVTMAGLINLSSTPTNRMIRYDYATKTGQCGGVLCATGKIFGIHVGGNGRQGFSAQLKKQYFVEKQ
T3 sequence (P07711 114-333): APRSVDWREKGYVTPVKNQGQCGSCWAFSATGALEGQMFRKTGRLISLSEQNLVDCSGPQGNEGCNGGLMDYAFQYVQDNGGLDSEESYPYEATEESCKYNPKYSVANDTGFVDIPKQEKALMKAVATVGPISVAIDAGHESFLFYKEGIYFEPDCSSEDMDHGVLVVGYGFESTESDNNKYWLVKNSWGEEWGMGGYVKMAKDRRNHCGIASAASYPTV

Compound	pIC50 (SARS-Cov-2 3CLpro)	pIC50 (HRV3C; [4])	pEC50 [1, 5]	CC50 at 6 days ([2]; class symbols)	pEC50 [3]	pIC50 (human cathepsin L)	CC50 at 6 days ([2]; numeric bound, unit inferred)	pEC50 ([1]; Betacoronavirus 1, OC43, HeLa)	pIC50 (HRV3C)
O=C(NC1CC1)C(=O)[C@H](C[C@@H]1CCNC1=O)NC(=O)[C@@H]1CC2(CCN1C(=O)c1nc(-c3ccccc3)cs1)CC2 [Example 3]	6.70 to 7.70	4.70 to 5.70	6.00 to 7.00	10000 to 100000 nM	5.00 to 6.00	≤ 5.00			
Cn1nc(C(=O)N2CCC3(CC3)C[C@H]2C(=O)N[C@@H](C[C@@H]2CCNC2=O)C(=O)C(=O)NC2CC2)c2ccccc21 [Example 10]	6.70 to 7.70	5.70 to 6.70	5.00 to 6.00	≥ 100000 nM	5.00 to 6.00	≤ 5.00			
O=C(NC1CC1)C(=O)C(C[C@@H]1CCNC1=O)NC(=O)[C@@H]1CC2(CCN1C(=O)c1cc3cccc4c3n1CCC4)CC2 (stereo partly drawn) [Compound 19, 3-{[(5S)-6-{1-azatricyclo[6.3.1.0^{4,12}]dodeca-2,4(12),5,7-tetraene-2-carbonyl}-6-azaspiro[2.5]octan-5-yl]formamido}-N-cyclopropyl-2-oxo-4-[(3S)-2-oxopyrrolidin-3-yl]butanamide]	> 7.70	5.70 to 6.70	5.00 to 6.00	≥ 100000 nM	> 6.00	5.00 to 6.00			
O=C(NC1CC1)C(=O)[C@H](C[C@@H]1CCNC1=O)NC(=O)[C@@H]1CC2(CCN1C(=O)c1cc3ccccn3n1)CC2 [Example 9]	5.70 to 6.70	4.70 to 5.70	5.00 to 6.00	≥ 100000 nM	5.00 to 6.00	≤ 5.00			
COc1cccc(-c2csc(C(=O)N3CCC4(CC4)C[C@H]3C(=O)N[C@@H](C[C@@H]3CCNC3=O)C(=O)C(=O)NC3CC3)n2)c1 [Compound 36]	5.70 to 6.70	4.70 to 5.70	6.00 to 7.00		5.00 to 6.00	≤ 5.00	> 100000 nM		
Cn1nc(C(=O)N2CCC3(CC3)C[C@H]2C(=O)NC(C[C@@H]2CCNC2=O)C(=O)C(=O)NC2CC2)cc1-c1ccccc1 (stereo partly drawn) [Compound 17, (5S)—N-(4-(cyclopropylamino)-3,4-dioxo-1-((S)-2-oxopyrrolidin-3-yl)butan-2-yl)-6-(1-methyl-5-phenyl-1H-pyrazole-3-carbonyl)-6-azaspiro[2.5]octane-5-carboxamide]	5.70 to 6.70	4.70 to 5.70	5.00 to 6.00	≥ 100000 nM	5.00 to 6.00	≤ 5.00			
Cc1ccc2cc(C(=O)N3CCC4(CC4)C[C@H]3C(=O)N[C@@H](C[C@@H]3CCNC3=O)C(=O)C(=O)NC3CC3)sc2c1 [Compound 15, (3S)—N-cyclopropyl-3-{[(5S)-6-(6-methyl-1-benzothiophene-2-carbonyl)-6-azaspiro[2.5]octan-5-yl]formamido}-2-oxo-4-[(3S)-2-oxopyrrolidin-3-yl]butanamide]	> 7.70	4.70 to 5.70	6.00 to 7.00	≥ 100000 nM	> 6.00	5.00 to 6.00			
Cn1cc(C(=O)N2CCC3(CC3)C[C@H]2C(=O)N[C@@H](C[C@@H]2CCNC2=O)C(=O)C(=O)NC2CC2)c2ccccc21 [Example 11]	6.70 to 7.70	> 7.70	5.00 to 6.00	≥ 100000 nM	5.00 to 6.00	5.00 to 6.00			
O=C(NC1CC1)C(=O)[C@H](C[C@@H]1CCNC1=O)NC(=O)[C@@H]1CC2(CCN1C(=O)[C@@H]1C[C@@H]1c1ccccc1)CC2 [Compound 47]	4.70 to 5.70	5.70 to 6.70			< 4.30	≤ 5.00	> 100000 nM	< 5.00	
Cn1nc2ccccc2c1C(=O)N1CCC2(CC2)C[C@H]1C(=O)N[C@@H](C[C@@H]1CCNC1=O)C(=O)C(=O)NC1CC1 [Example 7]	> 7.70	5.70 to 6.70	6.00 to 7.00	≥ 100000 nM	5.00 to 6.00	5.00 to 6.00			
O=C(NC1CC1)C(=O)[C@H](C[C@@H]1CCNC1=O)NC(=O)[C@@H]1CC2(CCN1C(=O)C1Cc3ccccc3C1)CC2 [Example 6, (S)—N—((S)-4-(cyclopropylamino)-3,4-dioxo-1-((S)-2-oxopyrrolidin-3-yl)butan-2-yl)-6-(2,3-dihydro-1H-indene-2-carbonyl)-6-azaspiro[2.5]octane-5-carboxamide]	6.70 to 7.70	5.70 to 6.70	6.00 to 7.00	≥ 100000 nM	> 6.00	≤ 5.00			
O=C(NC1CC1)C(=O)[C@H](C[C@@H]1CCNC1=O)NC(=O)[C@@H]1CC2(CCN1C(=O)[C@@H]1CCCc3ccccc31)CC2 [Compound 32]	6.70 to 7.70	5.70 to 6.70	5.00 to 6.00	≥ 100000 nM	> 6.00	≤ 5.00			
O=C(NC1CC1)C(=O)[C@H](C[C@@H]1CCNC1=O)NC(=O)[C@@H]1CC2(CCN1C(=O)c1nc(C3CCCCC3)cs1)CC2 [Compound 46]	5.70 to 6.70		6.00 to 7.00		5.00 to 6.00	5.00 to 6.00	> 100000 nM		< 5.00
O=C(NC1CC1)C(=O)[C@H](C[C@@H]1CCNC1=O)NC(=O)[C@@H]1CC2(CCN1C(=O)c1cn3ccccc3n1)CC2 [Compound 20, (3S)—N-cyclopropyl-3-{[(5S)-6-{imidazo[1,2-a]pyridine-2-carbonyl}-6-azaspiro[2.5]octan-5-yl]formamido}-2-oxo-4-[(3S)-2-oxopyrrolidin-3-yl]butanamide]	5.70 to 6.70			≥ 100000 nM	< 4.30	≤ 5.00		< 5.00	< 5.00
Cn1c(C(=O)N2CCC3(CC3)C[C@H]2C(=O)N[C@H](C#N)C[C@@H]2CCNC2=O)cc2ccccc21 [Example 5, (S)—N—((S)-1-cyano-2-((S)-2-oxopyrrolidin-3-yl)ethyl)-6-(1-methyl-1H-indole-2-carbonyl)-6-azaspiro[2.5]octane-5-carboxamide]	5.70 to 6.70		5.00 to 6.00	≥ 100000 nM	5.00 to 6.00	≤ 5.00			< 5.00
O=C(NC1CC1)C(=O)[C@H](C[C@@H]1CCNC1=O)NC(=O)[C@@H]1CC2(CCN1C(=O)c1cccc(-c3ccccc3)n1)CC2 [Compound 41]	5.70 to 6.70	5.70 to 6.70	6.00 to 7.00		5.00 to 6.00	≤ 5.00	> 100000 nM		
